For orientation: IC50 means the midpoint of a concentration-inhibition curve. Read a low IC50 as higher potency.

Results on 36 sequences are retold here after patent publication US20060079453A1, “Hla binding peptides and their uses” (priority 2002, published 2006).

No end group written: not given here. Some results are limits rather than exact numbers.

Holding throughout (assay): biochemical
Assay type in all cases: binding

Test [1] addresses HLA-A*0301 (Homo sapiens, UniProt P04439).
In test [2] the target is HLA-A*1101 (Homo sapiens, UniProt P04439, A114D/D185E/E176A/F33Y/L180Q/S129P/T187R).
In test [3] the target is HLA-A*3101 (Homo sapiens, UniProt P04439, A270S/D185E/E176V/E277Q/F33T/G231S/G80R/H175R/I121M/I218V/I322F/K168Q/L300P/L318F/M331R/P217A/Q94H/R138Q/T323A/T345S/T97I/V358M).
For test [4], the target named is HLA-A*3301 (Homo sapiens, UniProt P04439, A270S/D185E/E176V/E277Q/E87N/F33T/G231S/H175R/I121M/I218V/I322F/K168Q/K210R/L300P/L318F/M331R/P217A/Q86R/Q94H/R138Q/T323A/T345S/T97I/V358M/Y195H).
The target in test [5] is HLA-A*6801 (Homo sapiens, UniProt P04439, A269V/D185E/E176V/E277Q/E87N/F33Y/G231S/I121M/I166T/I218V/L180W/L300P/L318F/N151K/P208A/P217A/Q86R/R169H/T345S).

HLA-A*1101, sequence (P04439 25-365 limits assumed, stated change not applied): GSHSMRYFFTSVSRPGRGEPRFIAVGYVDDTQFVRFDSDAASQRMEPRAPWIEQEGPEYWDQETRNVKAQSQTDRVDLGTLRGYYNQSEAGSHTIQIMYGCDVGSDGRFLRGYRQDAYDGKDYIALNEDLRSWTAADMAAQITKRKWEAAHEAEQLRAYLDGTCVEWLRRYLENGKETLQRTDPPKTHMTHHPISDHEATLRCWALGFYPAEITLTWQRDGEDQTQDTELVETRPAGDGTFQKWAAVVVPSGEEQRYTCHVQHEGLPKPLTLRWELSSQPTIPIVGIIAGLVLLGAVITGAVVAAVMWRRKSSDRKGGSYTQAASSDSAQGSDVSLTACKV

As to KFYSKISEYK, the half-maximal inhibitory concentration (IC50) in test [1] was found to be 7.6 nM; in test [2] it was 674 nM; in test [3], 27 nM; in test [4] it was 329 nM; in test [5], 208 nM.

Regarding RLFEESLGIR, the half-inhibitory concentration (IC50) in test [1] was 64 nM; in test [2], 1100 nM; in test [3], 297 nM; in test [4], 788 nM; in test [5], 409 nM.

With KISEYRHYNR, the IC50 in test [1] was 58 nM; in test [2], 140 nM; in test [3], 17 nM; in test [4] it was 161 nM; in test [5] it was 1580 nM.

As for AVIFTPIYY, the IC50 in test [1] stood at 25 nM; in test [2] it was 9.5 nM; in test [3] it was 42300 nM; in test [4], 10100 nM; in test [5], 1350 nM.

For SVCRSSRTR, the IC50 in test [1] came to 323 nM; in test [2], 97 nM; in test [3], 249 nM; in test [4] it was 547 nM; in test [5], 17 nM.

Turning to STLGPGPGVRR, the IC50 in test [1] worked out at 892 nM; in test [2], 19 nM; in test [3], 42 nM; in test [4], 670 nM; in test [5], 3.8 nM.

In the case of QQNQESKIMK, the half-maximal inhibitory concentration (IC50) is 3470 nM in test [1]; 77 nM in test [2]; 28100 nM in test [3]; greater than 17400 nM in test [4]; 21300 nM in test [5].

Consider VTVRVGGQLK, for which the IC50 was 216 nM in test [1]; 19 nM in test [2]; 8240 nM in test [3]; greater than 72300 nM in test [4]; 141 nM in test [5].

KQENWYSLKK: the IC50 was 608 nM in test [1]; 178 nM in test [2]; 6330 nM in test [3]; greater than 136000 nM in test [4]; 4790 nM in test [5].

As for SFYGTTLEK, the half-maximal inhibitory concentration (IC50) in test [1] turned out to be 34 nM; in test [2] it was 15 nM; in test [3], 517 nM; in test [4], 3380 nM; in test [5], 498 nM.

Regarding NTLEQTVKR, the half-inhibitory concentration (IC50) in test [1] worked out at 20400 nM; in test [2], 1150 nM; in test [3] it was 2270 nM; in test [4], 18 nM; in test [5], 8.6 nM.

Consider KVSEFRWYRR, for which the IC50 in test [1] was 266 nM; in test [2] it was 16 nM; in test [3], 2.8 nM; in test [4], 159 nM; in test [5], 30 nM.

GTMYILLKK: the IC50 in test [1] amounted to 2.2 nM; in test [2] it was 1.2 nM; in test [3] it was 29 nM; in test [4] it was 8450 nM; in test [5], 3.1 nM.

Consider TFLEKLTNK, for which the half-inhibitory concentration (IC50) in test [1] was determined as 6840 nM; in test [2], 815 nM; in test [3], 451 nM; in test [4], 148 nM; in test [5] it was 918 nM.

With VTLDIQSTK, the IC50 came out at 78 nM in test [1]; 13 nM in test [2]; 2050 nM in test [3]; 1950 nM in test [4]; 237 nM in test [5].

As to RVRRRRWRAR, the IC50 in test [1] is 2440 nM; in test [2] it was greater than 16800 nM; in test [3], 265 nM; in test [4], 3760 nM; in test [5], greater than 36900 nM.

For the sequence GVSHAQLPAK, the IC50 in test [1] is 42 nM; in test [2], 12 nM; in test [3], 36000 nM; in test [4], greater than 74900 nM; in test [5], 20600 nM.

As to NVMGRWTGR, the IC50 in test [1] came out at 3880 nM; in test [2], 794 nM; in test [3], 40 nM; in test [4] it was 18 nM; in test [5] it was 20 nM.

Take ALQAAAAAK: the IC50 in test [1] is 57 nM; in test [2] it was 65 nM; in test [3], 52000 nM; in test [4], greater than 72500 nM; in test [5], greater than 80000 nM.

Consider GVSGPGPGK, for which the IC50 in test [1] was 13 nM; in test [2], 5.8 nM; in test [3], greater than 11200 nM; in test [4], greater than 112000 nM; in test [5] it was 209 nM.

With GVNHQHLPAK, the 50% inhibitory concentration (IC50) in test [1] was 42 nM; in test [2], 11 nM; in test [3], 3340 nM; in test [4] it was 76200 nM; in test [5], 9350 nM.

Regarding FVVYRDSIPK, the half-inhibitory concentration (IC50) in test [1] is 265 nM; in test [2] it was 81 nM; in test [3], 6220 nM; in test [4], 146 nM; in test [5], 30 nM.

With VTVYGPGPGWK, the concentration for half-maximal inhibition (IC50) is 1150 nM in test [1]; 18 nM in test [2]; greater than 9000 nM in test [3]; greater than 103000 nM in test [4]; 206 nM in test [5].

Regarding RLLSKISEYR, the concentration for half-maximal inhibition (IC50) was found to be 5.2 nM in test [1]; 662 nM in test [2]; 7.7 nM in test [3]; 108 nM in test [4]; 21 nM in test [5].

On to SLYGKTLEEK, for which the half-maximal inhibitory concentration (IC50) in test [1] was found to be 7.9 nM; in test [2], 6.8 nM; in test [3] it was 1040 nM; in test [4] it was 6520 nM; in test [5], 29 nM.

Turning to STGPGPGVVRR, the IC50 in test [1] was determined as 18700 nM; in test [2] it was 367 nM; in test [3], 95 nM; in test [4] it was 5980 nM; in test [5] it was 5.8 nM.

As for DTVYGDTLEK, the 50% inhibitory concentration (IC50) in test [1] was 50 nM; in test [2], 15 nM; in test [3], 28800 nM; in test [4], 55100 nM; in test [5], 31 nM.

For SSFDIKSEVK, the IC50 in test [1] turned out to be 1900 nM; in test [2], 19 nM; in test [3] it was 19800 nM; in test [4], 70300 nM; in test [5], 31 nM.

KVGSLQYLK: the concentration for half-maximal inhibition (IC50) in test [1] is 482 nM; in test [2] it was 70 nM; in test [3] it was 2100 nM; in test [4] it was greater than 43700 nM; in test [5], 4200 nM.

With YTFVFADLR, the half-inhibitory concentration (IC50) in test [1] was determined as 3630 nM; in test [2], 8.1 nM; in test [3], 20 nM; in test [4], 6.6 nM; in test [5], 2.9 nM.

With ELTEVFEFAFK, the IC50 in test [1] amounted to 8970 nM; in test [2] it was 582 nM; in test [3] it was 25200 nM; in test [4], 1730 nM; in test [5], 15 nM.

For EVYNFACTELK, the concentration for half-maximal inhibition (IC50) in test [1] stood at 1620 nM; in test [2], 117 nM; in test [3] it was 484 nM; in test [4] it was 5.9 nM; in test [5], 2.7 nM.

On to KFSEFRWYRY, for which the IC50 is 4750 nM in test [1]; 1590 nM in test [2]; 34 nM in test [3]; 856 nM in test [4]; 12800 nM in test [5].

For GLYNLLIRCLR, the IC50 is 1570 nM in test [2], 250 nM in test [3], 401 nM in test [4] and 1620 nM in test [5].

Consider MQSSFFMNR, for which the IC50 in test [2] amounted to 1.1 nM; in test [3], 29 nM; in test [4], 75 nM; in test [5] it was 3.8 nM.

Turning to KFSEYRHYCY, the half-inhibitory concentration (IC50) was 7480 nM in test [2], 308 nM in test [3], 49400 nM in test [4] and 14600 nM in test [5].
